Measurements reported in patent US20260199371A1, “COORDINATION COMPOUND, COMPOSITIONS, AND USES THEREOF FOR TREATING CANCERS” (HUEIYUAN BIOTECH LLC, priority 2023, published 2026).

Legend:
LoVo-parental cells [1] = tested on: LoVo-parental cells
LoVo-OXAR cells [2] = tested on: LoVo-OXAR cells
LoVo-parental cells [3] = conditions: single agent: compound (II) 500 μg/ml or oxaliplatin 50 μg/ml, 48 hours
LoVo-OXAR cells [4] = conditions: single agent: compound (II) 2000 μg/ml or oxaliplatin 50 μg/ml, 48 hours
LoVo-parental cells [5] = conditions: single agent: compound (II) 500 μg/ml or oxaliplatin 50 μg/ml, 72 hours
LoVo-OXAR cells [6] = conditions: single agent: compound (II) 2000 μg/ml or oxaliplatin 50 μg/ml, 72 hours

Compound: O=C1[O][Pt]2([NH][C@@H]3CCCC[C@H]3[NH]2)[O]C1=O [oxaliplatin, reference compound]
- viability of LoVo-parental cells under oxaliplatin (LoVo-parental cells [1]; FIG. 2C): decreased the viability of both LoVo-parental and LoVo-OXAR cells in a dose-dependent manner
- IC50 of oxaliplatin in LoVo-parental cells (LoVo-parental cells [1]; MTT assay): about 15.0 μg/ml
- viability of LoVo-OXAR cells under oxaliplatin (LoVo-OXAR cells [2]; FIG. 2C): decreased the viability of both LoVo-parental and LoVo-OXAR cells in a dose-dependent manner
- IC50 of oxaliplatin in LoVo-OXAR cells (LoVo-OXAR cells [2]; MTT assay): about 65 μg/ml
- migration rate of LoVo-parental cells (LoVo-parental cells [3]): significantly decreased
- migration rate of LoVo-OXAR cells (LoVo-OXAR cells [4]): significantly decreased
- invasion rate of LoVo-parental cells (LoVo-parental cells [5]): significantly decreased
- invasion rate of LoVo-OXAR cells (LoVo-OXAR cells [6]): significantly decreased
